Source: ChEMBL document CHEMBL1155555, “Matemone, a new bioactive bromine-containing oxindole alkaloid from the indian ocean sponge Iotrochota purpurea” (J Nat Prod, 2000)
≈ marks a conversion by molar mass, not a printed value. Calls of active or inactive are those of the source. The rule behind the calls is not given here.

Experiments:
[1] = test system: Staphylococcus aureus; experiment: Antibacterial activity against Staphylococcus aureus at 50 ug/disk after 18 hrs by paper disk agar diffusion assay; format: functional; conditions: read-out: IZ
[2] = test system: Paracentrotus lividus; experiment: Inhibition of sea urchin egg division
[3] = test system: MIA PaCa-2; experiment: Cytotoxicity against human PaCa2; format: functional, cell-based
[4] = test system: Candida albicans; experiment: Antifungal activity against Candida albicans at 200 ug/disk after 18 hrs by paper disk agar diffusion assay; format: functional, organism-based
[5] = test system: Staphylococcus aureus; experiment: Antibacterial activity against Staphylococcus aureus at 100 ug/disk after 18 hrs by paper disk agar diffusion assay; format: functional; conditions: read-out: IZ
[6] = Cytotoxicity against human NSCLC-N6 L16; format: functional
[7] = test system: Staphylococcus aureus; experiment: Antibacterial activity against Staphylococcus aureus at 200 ug/disk after 18 hrs by paper disk agar diffusion assay; format: functional; conditions: read-out: IZ
[8] = test system: DU-145; experiment: Cytotoxicity against human DU145; format: functional, cell-based
[9] = test system: DNA; experiment: Binding affinity to calf thymus DNA by DNA intercalating assay relative to ethidium bromide; format: nucleic-acid assay; conditions: Bos taurus

SMILES: COC1(CO)Nc2cc(Br)ccc2C1=O (centres undefined) [MATEMONE]
- zone of inhibition at 50 µg/disc [1]: 7 mm
- IC50 [2]: 35 µg/mL (≈ 129 µM)
- IC50 [3]: 24 µg/mL (≈ 88.2 µM)
- Activity [4]: inactive
- zone of inhibition at 100 µg/disc [5]: 9 mm
- IC50 [6]: 30 µg/mL (≈ 110 µM)
- zone of inhibition at 200 µg/disc [7]: 11 mm
- IC50 [8]: 27 µg/mL (≈ 99.2 µM)
- Activity [9]: 40%
